How the values were obtained:
[1] = test system: foamed C57BL/6J mouse-derived macrophages; assay: ApoE secretion-promoting effect in foamed mouse peritoneal macrophages (Western blotting of supernatants); type: cell-based; details: BO-653 added at 3 and 10 μmol/L, 24 hours of culture, anti-mouse ApoE antibody, FIG. 1
Experimental: (§1) 4.05 w/v % thioglycollate-elicited intraperitoneally exuded cells were prepared from C57BL/6J and ApoE-deficient mice. The cells were inoculated on 12-well plate at 1.0×10^6 cells/well. The cells were cultured at 37° C. under 5 vol % CO2. After 3 hours of culture, the culture medium was changed to a fresh one to remove inadhesive cells, leaving mouse-peritoneal macrophages in each of the wells. Next day, the mouse-peritoneal macrophages were cultured in a medium containing 50 μg of protein per mL of acetylated LDL for 24 hours to form foam cells.
(§2) To the wells containing the foamed C57BL/6J mouse-derived macrophages, 4,6-di-t-butyl-2,2-dipentyl-5-hydroxy-2,3-dihydrobenzofuran (BO-653) was added to final concentrations of 0, 3 and 10 μmol/L. After 24 hours of culture, the supernatants were collected to prepare samples for SDS-PAGE.
The samples were subjected to 10 w/v % SDS-PAGE. Following the SDS-PAGE, the bands were transferred onto nitrocellulose papers using semi-drying method and blocked with TBS containing 10 w/v % skim milk and 0.1 vol % Tween-20. Rabbit anti-mouse ApoE-antibody (#K23100R, BIODESIGN) and peroxidase-labeled anti-rabbit IgG antibody (#7071-1, Cell Signaling TECHNOLOGY) were used as the first and secondary antibodies, respectively. ApoE was detected using chemoluminescence method (PIERCE).

[2] = test system: foamed C57BL/6J mouse-derived macrophages; assay: Intracellular cholesterol-removing effect in foamed macrophages (enzymatic total cholesterol measurement); type: cell-based; details: for Cholesterol Reduction (%) Means: 24 hours, relative to the vehicle (0 μmol/L = 100.0)
Experimental: as §1, §2
On the other hand, the foamed macrophages which were cultured in the presence of BO-653 and harvested at the same time as the collection of the supernatants were extracted with a mixed solvent of hexane/2-propanol (3:2 v/v) to obtain lipids. Then, the total amount of cholesterol in the lipids was measured using the enzymatic method described by Yoshiki Kawabe et al., “Oxidation-Induced Aggregation of Rabbit Low-Density Lipoprotein by Azo Initiator”, Achieves of Biochemistry and Biophysics 310, 489-496 (1994). We regarded the total amount of cholesterol as intracellular cholesterol content of the macrophages.

C57BL/6J mice = assay: ApoE increasing effect in mouse serum (SDS-PAGE of lipoprotein-containing fractions); type: in vivo; details: high fat diet containing 0.65% BO-653 for 5 weeks versus high fat diet with no BO-653, FIG. 2
Experimental: Seven-week-old C57BL/6J mice were divided into first group of three and second group of four. The animals of the first and second groups were fed a high fat diet containing no BO-653 and 0.65% BO-653, respectively. After 5 weeks of diet initiation, the animals were anesthetized with ether and their blood was individually drawn from vena cava descendens. Serum samples were prepared from the drawn blood and 100 μL of each of the samples was placed into a tube. To the tube, 900 μL of sodium bromide solution having 1.256 density was added, and the tube was centrifuged in TL-100 desk type ultracentrifuge at 100,000 rpm for 20 hours using TLA-100.2 rotor. Lipoprotein-containing fraction thus obtained was collected and treated with 10 w/v % trichloroacetic acid solution. The precipitate was collected and dissolved into 80 μL of solution for SDS-PAGE. 10 μL of the solution was subjected to 15 w/v % SDS-PAGE and the gels were stained with Coomassie brilliant blue. By comparing the bands with molecular weight markers, ApoE was identified.

Compound: CCCCCC1(CCCCC)Cc2c(cc(C(C)(C)C)c(O)c2C(C)(C)C)O1 [BO-653, 4,6-di-t-butyl-2,2-dipentyl-5-hydroxy-2,3-dihydrobenzofuran]
- saccharified-ApoE expression in culture supernatant [1]: increased saccharified-ApoE expression
- Cholesterol Reduction (%) Means ([2]; BO-653 3 μmol/L): 132.6%
- Cholesterol Reduction (%) Means ([2]; BO-653 10 μmol/L): 145.9%
- intracellular cholesterol content of macrophages ([2]; treatment with BO-653, 24 hours, result in words): decrease in intracellular cholesterol content
- ApoE production in serum lipoprotein-containing fraction (C57BL/6J mice): increased ApoE production
